In one experiment the test system is RAW 264.7 macrophages. In words: Phagocytic receptor assay: engulfment of IgG or ligand coated particles by RAW macrophages (foam cell model), confocal. Format: cell-based, murine. The conditions noted are these: for engulfment / accumulation of IgG or ligand coated particles: RAW macrophages, confocal. From the text:
FIG. 25, panels A and B, illustrate respectfully a method for measurement of phagocytic receptors and a method for measuring transfection or delivery of nucleic acids and simultaneous measurement of particle engulfment using a single cell multi label confocal microscope experiment. A direct or surrogate measurement of receptor function or receptor pathway activity must be made in order establish the role of potential therapeutic target proteins in receptor function. IgG, complement, low density lipoprotein (LDL), oxidatively modified LDL (OX-LDL). Acetyl-LDL, apolipoproteins, lipoproteins, lipopolysaccharide (LPS), scavenger and other receptor functions can be measured by the accumulation of particles. The particles may themselves be comprised in part of fluorescent materials or can be directly stained with fluorescent or other colored materials or can be bound by proteins that directly or indirectly permit the attachment of fluorescent, chemiluminescent or other reporter molecules. The beads may be stained in live cells or cells fixed with formalin or paraformaldehyde or organic solvents such as alcohol and acids or by other means. The beads can be stained both before or after internalization with or without the permeabilization of the cells by detergents or organic solvents. The beads may be cells that can be lysed and imaged directly. The cells may be counter stained for the presence of specific proteins using antibodies or may express fluorescent protein constructs or contain fluorescent silencing RNA or DNA constructs or biopolymer modulating agents or drugs (FIG. 25).
We created a foam cell model and quantitative confocal assays for micro particle engulfment by macrophages. The engulfment of particles by macrophages and the generation of free radicals by leukocytes are the key physiological actions that lead to the generation of foam cells that are the center of atherosclerotic plaques. We made a cellular model system of foam cells or activated leukocytes and examine the effects of moderate levels of alcohol over time on the accumulation of particles and generation of free radicals at the site of particle accumulation compared to statins and propranolol. The model systems will consist of RAW macrophages that engulf hydrophobic polystyrene microparticles with or without coating by ligands or mixtures of ligands such as those found in cellular growth media, or free fluorescently labeled DI-LDL, OX-LDL, Acetyl LDL or other. Live cell confocal microscopy was used to quantify the effects of ethanol, compared to lovastatin and propranolol, on particle engulfment.
External particles were stained green with secondary anti rabbit FITC and then cells were permeablized and all particles stained red with secondary anti rabbit CY3. Thus engulfed particles appear red while external particles appear yellow. Beads within the cells carrying only the red signal (engulfed) and not also the green signal {red+green=yellow} (outside) were quantified for accumulation assays using both total fluorescence in the green channel and by counting individual beads in three fields on three independent cover slips for each concentration.
RAW 264.7 macrophages were cultured in alpha MEM with 5% fetal calf serum as described. The effects of lovastatin on IgG and LDL coated micro-particle engulfment at 0, 50 nM, 100 nM, 500 nM, 1 mM and higher was tested. The accumulation of free DI-LDL was quantified directly by its red fluorescence. External particles were stained green with secondary anti rabbit FITC and then cells were permeablized and all particles stained red with secondary anti rabbit CY3. Thus engulfed particles appear red while external particles appear yellow.

Experiment [1] has as its system PLD/PAP-1 pathway (DAG production). In words: DAG production at site of particle engulfment measured with PKC/C2-GFP. Format: cell-based, murine. From the text: FIG. 28 illustrates use of DAG binding domains to screen for atherosclerosis drugs in macrophages.
A further experiment has as its system PLC. The conditions noted are these: PLC-delta PH domain. The text has this:
The metabolic activation of the receptor pathway at the binding site of modified beads such as ligand coated particles may be detected, measured and quantified using green fluorescence protein (GFP) fused with binding domains specific to different biopolymers, or modified biopolymers or metabolites in including phosphorylations at the site of modified particle or bead or binding.

For another experiment, the system named is human neutrophils. In words: fMLP induced oxidative burst, cytochrome C reduction assay. In kind it is cell-based.
A further experiment relates to PI3K pathway to PIP3. In words: PIP3 accumulation at site of IgG coated particles measured with AKT/PH-GFP. Format: cell-based, murine. On the procedure:
FIG. 27 illustrates the use of PiP3 binding PH domains to screen atherosclerosis drugs in macrophages.
The PI3K pathway that converts PIP4, 5 bis-phosphate to PIP3, 4, 5, triphosphate, also called PIP3. PIP3 is measured by the Pleckstrin Homology (PH) domain of the protein kinase AKT, that has a high affinity for PIP3, fused to GFP (AKT/PH-GFP). The accumulation of phosphatidyl inositol triphosphate at the site of IgG coated particles was inhibited using wortamannin, and LY294002 dissolved into the cell experimental media.

For experiment [2] the following is noted: in vivo; cited from earlier work.
For the next experiment, the system named is PLD pathway. The conditions noted are these: 500 micromolar; cited from earlier work.
The subject of experiment [3] is sheep red blood cells phagocytosis. As to the kind of experiment: Phagocytosis of sheep red blood cells. The conditions noted are these: 15 to 30 minute incubation. Format: cell-based.
A further experiment deals with RAW cells. As to the kind of experiment: Cellular cholesterol extraction, filipin staining. Format: cell-based, murine. The conditions noted are these: brief incubation. From the text: Cholesterol levels were quantified by the esterase assay, oil red- and filipin-staining.
For a further experiment, the system named is RAW macrophages. As to the kind of experiment: Biochemical measurement of protein levels in fractions of drug treated RAW macrophages. Format: cell-based, murine. The conditions noted are these: FIG. 67 cytosol fractions. The text has this:
A now well established side effect of ethanol is to prevent heart attack. Thus the common effects of statins, propranolol, and ethanol must be closely linked to the central mechanism that is the most important pharmacological target of heart attack and thus atherosclerosis prevention. It remains possible that the preventative effect of statins results from their effect to inhibit particle engulfment and foam cell formation by macrophages leading to atherosclerotic plaques. We created a foam cell model and quantitative confocal assays for micro particle engulfment by macrophages. The engulfment of particles by macrophages and the generation of free radicals by leukocytes are the key physiological actions that lead to the generation of foam cells that are the center of atherosclerotic plaques. We have made a cellular model system of leukocytes or activated leukocytes or leukocytes treated over time to examine the effects drugs and biopolymer modification materials over time on the activation of receptors at the site of modified or ligand coated particles. The drugs used in this system to examine the kinetics of receptor function at modified particles may result in changes to the cell including changes in gene expression at the level of DNA transcription, RNA production, accumulation or post-transcription processing, mRNA production accumulation or expression all of which may also alter protein expression. We examined the use of these model systems with and without beads as a system to screen the effects of drugs that are known to prevent heart attack and stroke in model of leukocyte cells within atherosclerotic plaques. We observe that drugs that effect receptor associated signaling may also alter gene, RNA or ultimately protein expression in cells resulting in changes in protein levels. Proteins that change levels in response to a drug may be themselves drug target proteins.
The drugs used in the leukocyte model system to examine the kinetics of receptor function at modified particles may result in changes to the cell including changes in gene expression at the level of DNA transcription, RNA production, accumulation or post-transcription processing, mRNA production accumulation or expression all of which may also alter protein expression. We examined the use of these model systems with and without beads as a system to screen the effects of drugs that are known to effect receptor response at or near the cell surface or interior of the cells. We observe that drugs that effect receptor associated signaling may also alter gene, RNA or ultimately protein expression in cells resulting in changes in protein levels. Proteins that change levels in response to a drug may be themselves drug target proteins. […] The RAW leukocyte model foam cells system alone or in combination with the bead based biology system can be used to characterize the effects of receptor or cellular activation in terms of second messengers such as lipid and protein phosphorylation with respect to drug treatment or time in the cytosol of leukocytes (FIG. 67).

The mark [4] stands for this setting: listed as Methyl-beta-cyclo-dextrin.
Setting [5] is: listed as methyl beta cyclo dextrin.

“Also recorded” adds a separate entry of the source.

Consider `O=C1O/C(=C/Br)CCC1c1cccc2ccccc12` (centres unmarked) [HELSS], for which the “engulfment / accumulation of IgG or ligand coated particles” value (from here on “engulfment / accumulation”) in the experiment with RAW 264.7 macrophages is “prevent particle accumulation”. Moreover, in experiment [1], the “DAG production at the site of ligand coated bead binding” value (“DAG production at the site” for short) is on record as “prohibit DAG production; also recorded: inhibitory effect”. Also, the “PIP2 catalysis by PLC” value in the experiment with PLC is on record as “neither EtOH, HELSS or propranolol interfere with the catalytic action of PLC”. In the experiment with human neutrophils, the “fMLP induced oxidative burst (super oxide radicals)” value (“fMLP induced oxidative burst” below) is on record as “inhibited the fMLP induced oxidative burst in a dose dependant manner”. Besides, the “accumulation of PIP3 at the site of IgG coated particles” value (from here on “accumulation of PIP3”) with PI3K pathway to PIP3 is “no side effect on the PI3K pathway to PIP3”.

Consider `CCCC(=O)Nc1ccc(OCC(O)CNC(C)C)c(C(C)=O)c1` (centres unmarked) [acetbutolol], for which the “engulfment / accumulation” value in the experiment on RAW 264.7 macrophages was “do not inhibit particle engulfment”. In addition, in the experiment with human neutrophils, the “fMLP induced oxidative burst” value is recorded as “not as effective as the PAP-1 inhibitor propranolol”.

In the case of `CC(C)NCC(O)COc1ccc(CC(N)=O)cc1` (centres unmarked) [atenolol], in the experiment with RAW 264.7 macrophages, the “engulfment / accumulation” value is listed as “do not inhibit particle engulfment”. For the same compound, the “fMLP induced oxidative burst” value in the experiment on human neutrophils is reported as “not as effective as the PAP-1 inhibitor propranolol”.

Consider `C=C1[C@@H](C)[C@H]2[C@H](Cc3ccccc3)NC(=O)[C@]23[C@H](OC(C)=O)/C=C/[C@@](C)(O)C(=O)[C@@H](C)C/C=C/[C@H]3[C@@H]1O` [cytochalasin D], for which the “accumulation of PIP3” value with PI3K pathway to PIP3 was “inhibited”.

In the case of `CCCCCCCC(=O)OCC(CO)OC(=O)CCCCCCC` (centres unmarked) [DiC8], the “reversal of PLD pathway inhibitor effect on particle engulfment” value in the experiment with RAW 264.7 macrophages (add-back of PLD pathway product) was “the effect is reversed by DiC8”.

Turning to `CC(C)NCC(O)COc1cccc2ccccc12` (centres unmarked) [propranolol], the “engulfment / accumulation” value is recorded as “prevent particle accumulation” in the experiment with RAW 264.7 macrophages and “had the largest effect in preventing the engulfment” in the experiment with RAW 264.7 macrophages (listed as Propranolol). Further, the “decrease in rate of heart attack” value in [2] was “about 35%”. In [1], the “DAG production at the site” value is “prohibit DAG production”. For the same compound, in the experiment with PLC, the “PIP2 catalysis by PLC” value is reported as “neither EtOH, HELSS or propranolol interfere with the catalytic action of PLC”. The “fMLP induced oxidative burst” value in the experiment with human neutrophils is recorded as “inhibited the fMLP induced oxidative burst in a dose dependant manner; also recorded: much greater effect in preventing the generation of free radicals”. Moreover, the “accumulation of PIP3” value in the experiment on PI3K pathway to PIP3 was “no side effect on the PI3K pathway to PIP3”. Moreover, the “effect in in vitro experiments” value in the experiment with PLD pathway is reported as “little effect”.

Regarding `CCO` [ethanol], the “engulfment / accumulation” value in the experiment on RAW 264.7 macrophages is reported as “prevent particle accumulation”. Moreover, the “DAG production at the site” value in experiment [1] is given as “prohibit DAG production”. In addition, the “PIP2 catalysis by PLC” value in the experiment with PLC is listed as “neither EtOH, HELSS or propranolol interfere with the catalytic action of PLC”. Further, the “fMLP induced oxidative burst” value in the experiment on human neutrophils was “inhibited the fMLP induced oxidative burst in a dose dependant manner”. The “accumulation of PIP3” value in the experiment with PI3K pathway to PIP3 is reported as “no side effect on the PI3K pathway to PIP3”.

In the case of `CC(C)(C)n1nc(-c2ccc(Cl)cc2)c2c(N)ncnc21` [PP2], the “engulfment / accumulation” value in the experiment on RAW 264.7 macrophages is reported as “inhibited”.

In the case of `CC(C)(C)NCC(O)COc1cccc2c1CC(O)C(O)C2` (centres unmarked) [nadolol], the “engulfment / accumulation” value in the experiment with RAW 264.7 macrophages was “do not inhibit particle engulfment”. Further, in the experiment with human neutrophils, the “fMLP induced oxidative burst” value is “not as effective as the PAP-1 inhibitor propranolol”.

Take `COCCc1ccc(OCC(O)CNC(C)C)cc1` (centres unmarked) [metoprolol]: the “engulfment / accumulation” value in the experiment on RAW 264.7 macrophages is “do not inhibit particle engulfment”. For the same compound, the “fMLP induced oxidative burst” value in the experiment on human neutrophils was “not as effective as the PAP-1 inhibitor propranolol”.

Regarding methyl-beta cyclodextrin [MBCD], the “engulfment / accumulation” value with RAW 264.7 macrophages was “no effect on particle engulfment”; in the experiment on RAW 264.7 macrophages (setting [4]) it was “no effect on particle accumulation”; in the experiment on RAW 264.7 macrophages (setting [5]), “little inhibitory effect”. In addition, the “phagocytosis of sheep red blood cells” value in experiment [3] is given as “no effect”. The “extraction of cellular cholesterol” value is reported as “highly effective cholesterol scavenger” in the experiment with RAW cells (setting [4]) and “effective to extract cholesterol” in the experiment with RAW cells (setting [5]). Also, the “accumulation of PIP3” value in the experiment with PI3K pathway to PIP3 is “did not prevent”.

In the case of `CC(C)NCC(O)COc1cccc2[nH]ccc12` (centres unmarked) [pindolol], the “engulfment / accumulation” value with RAW 264.7 macrophages was “do not inhibit particle engulfment”. Moreover, in the experiment with human neutrophils, the “fMLP induced oxidative burst” value was “not as effective as the PAP-1 inhibitor propranolol”.

Turning to `[F][Al-]([F])([F])[F]` [AlF4], the “levels of proteins after G protein stimulatory drug (FIG. 67)” value in the experiment with RAW macrophages is “alter levels of proteins in the membranes”.

Consider `CCCCC/C=C\C/C=C\C/C=C\C/C=C\CCCC(=O)C(F)(F)F` [AACOCF3], for which the “DAG production at the site” value in [1] is recorded as “Neither MAFP nor AACOCF3 prevent DAG production”. In addition, the “fMLP induced oxidative burst” value in the experiment with human neutrophils was “little effect on the oxidative burst”.
